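Cells were grown in 96-well plates and exposed to each compound for 48 hours at five concentrations; endpoints were interpolated linearly between bracketing concentrations, or set to the highest concentration if not reached. At the TGI there is no net growth.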
Columns and labels:
Test in all cases: NCI tumour cell line growth inhibition, 48 h
K-562 leukemia = test system: K-562 leukemia
M14 melanoma = test system: M14 melanoma
DMS 114 small cell lung = test system: DMS 114 small cell lung
A549 NSCLC = test system: A549 NSCLC
SN12C renal = test system: SN12C renal
COLO 205 colon = test system: COLO 205 colon
MOLT-4 leukemia = test system: MOLT-4 leukemia
CCRF-CEM leukemia = test system: CCRF-CEM leukemia
OVCAR-8 ovarian = test system: OVCAR-8 ovarian
SK-MEL-28 melanoma = test system: SK-MEL-28 melanoma
HCT-116 colon = test system: HCT-116 colon
NCI-H23 lung = test system: NCI-H23 lung
UACC-257 melanoma = test system: UACC-257 melanoma
RPMI-8226 leukemia = test system: RPMI-8226 leukemia
SNB-78 CNS = test system: SNB-78 CNS
ACHN renal = test system: ACHN renal
HOP-92 NSCLC = test system: HOP-92 NSCLC
XF 498 CNS = test system: XF 498 CNS
HT29 colon = test system: HT29 colon
SF-268 CNS = test system: SF-268 CNS
SF-295 CNS = test system: SF-295 CNS
786-0 renal = test system: 786-0 renal
SNB-75 CNS = test system: SNB-75 CNS
EKVX NSCLC = test system: EKVX NSCLC
U251 CNS = test system: U251 CNS
SNB-19 CNS = test system: SNB-19 CNS
OVCAR-3 ovarian = test system: OVCAR-3 ovarian
IGROV1 ovarian = test system: IGROV1 ovarian
UO-31 renal = test system: UO-31 renal
MALME-3M melanoma = test system: MALME-3M melanoma
LXFL 529 NSCLC = test system: LXFL 529 NSCLC
HOP-18 NSCLC = test system: HOP-18 NSCLC
SK-OV-3 ovarian = test system: SK-OV-3 ovarian
DMS 273 small cell lung = test system: DMS 273 small cell lung
HL-60(TB) leukemia = test system: HL-60(TB) leukemia
NCI-H226 lung = test system: NCI-H226 lung
OVCAR-4 ovarian = test system: OVCAR-4 ovarian
NCI-H522 lung = test system: NCI-H522 lung
KM12 colon = test system: KM12 colon
SR leukemia = test system: SR leukemia
NCI-H460 lung = test system: NCI-H460 lung
HOP-62 NSCLC = test system: HOP-62 NSCLC
LOX IMVI melanoma = test system: LOX IMVI melanoma
RXF 393 renal = test system: RXF 393 renal
RXF-631 renal = test system: RXF-631 renal
HCT-15 colon = test system: HCT-15 colon
OVCAR-5 ovarian = test system: OVCAR-5 ovarian
M19-MEL melanoma = test system: M19-MEL melanoma
A498 renal = test system: A498 renal
CAKI-1 renal = test system: CAKI-1 renal
SK-MEL-2 melanoma = test system: SK-MEL-2 melanoma
UACC-62 melanoma = test system: UACC-62 melanoma
SW-620 colon = test system: SW-620 colon
DLD-1 colon = test system: DLD-1 colon
SF-539 CNS = test system: SF-539 CNS
HCC-2998 colon = test system: HCC-2998 colon
TK-10 renal = test system: TK-10 renal
KM20L2 colon = test system: KM20L2 colon
SK-MEL-5 melanoma = test system: SK-MEL-5 melanoma

Measured: TGI

O=S(Cc1ccccn1)c1nc2ccccc2nc1-c1ccccc1 (stereo not given)
76.2 µM: NCI-H226 lung
90.4 µM: UO-31 renal
69.6 µM: DMS 114 small cell lung
83.3 µM: HOP-92 NSCLC
> 100 µM: K-562 leukemia | M14 melanoma | A549 NSCLC | SN12C renal | MOLT-4 leukemia | CCRF-CEM leukemia | OVCAR-8 ovarian | SK-MEL-28 melanoma | HCT-116 colon | NCI-H23 lung | ACHN renal | HT29 colon | SF-268 CNS | SF-295 CNS | 786-0 renal | U251 CNS | SNB-19 CNS | OVCAR-3 ovarian | LXFL 529 NSCLC | HOP-18 NSCLC | SK-OV-3 ovarian | DMS 273 small cell lung | OVCAR-4 ovarian
82 µM: UACC-257 melanoma
91.3 µM: RPMI-8226 leukemia
73.3 µM: IGROV1 ovarian
47.3 µM: XF 498 CNS
94 µM: SNB-78 CNS
32.8 µM: COLO 205 colon
73.7 µM: EKVX NSCLC
97.7 µM: MALME-3M melanoma
79.6 µM: SNB-75 CNS
80.7 µM: HL-60(TB) leukemia

O=c1n(-c2ccccc2)c(=O)n2n1C1C=CC2C2C(C1)C2(Cl)Cl (stereo not given)
not listed: SK-MEL-28 melanoma | NCI-H23 lung | RPMI-8226 leukemia | HOP-92 NSCLC | HT29 colon | HOP-18 NSCLC
> 100 µM: all other assays above
